Measurements taken from publication PMC4038613, “A New Class of Multimerization Selective Inhibitors of HIV-1 Integrase” (PLoS Pathogens, 2014).
Like-named read-outs stand apart in the source and are kept apart here.

Assays:
[1] = target: T1, HIV-1 IN (Human immunodeficiency virus type 1 group M subtype B, UniProt P12497); settings: IC50 for inhibiting IN-LEDGF/p75 binding divided by EC50 for aberrant IN multimerization; fold
Protocol: (§1) HTRF-based IN multimerization and IN-LEDGF/p75 binding assays were carried out as described previously [33]. The HTRF signal was recorded using a Perkin Elmer Multimode EnSpire plate reader.

[2] = target: T2, IN-LEDGF/p75 (Human immunodeficiency virus type 1 group M subtype B, UniProt P12497); experiment: HTRF-based IN-LEDGF/p75 binding assay; set-up: species or system HIV-1
Protocol: HTRF-based IN multimerization and IN-LEDGF/p75 binding assays were carried out as described previously [33].

[3] = in vitro; assay type: cell-based
Protocol: The cytotoxcity assays were performed as described previously. The fitted dose-response curves were generated to calculate EC50 or CC50 using Origin software (OriginLab, Inc.).

[4] = target: T1, HIV-1 IN; experiment: biochemical
Protocol: as §1

[5] = system: HIV-1NL4-3; experiment: microbe, parasite or virus in culture; assay type: cell-based; settings: for Selectivity Index, CC50/IC50: CC50 for cytotoxicity by IC50 for antiviral activity
[6] = system: VSV-G pseudotyped HIV-1-Luc; assay type: cell-based
[7] = system: HIV-1NL4-3; settings: cited from earlier work
[8] = target: T1, HIV-1 IN; set-up: DLS analysis of KF116-induced multimerization of recombinant IN; method as in PMID 22437836; settings: HTRF; read-out: EC50 for aberrant IN multimerization; cited from earlier work
[9] = system: A128T IN HIV-1NL4-3; experiment: A128T HIV-1 infectivity in TZM-bl cells; assay type: cell-based; settings: particles produced in presence of inhibitor
[10] = target: T2, IN-LEDGF/p75; set-up: method as in PMID 22437836; settings: HTRF; read-out: IC50 for IN-LEDGF/75 binding; cited from earlier work
[11] = system: HIV-1; set-up: method as in PMID 24040198; settings: ref 41; read-out: IC50 in target cells; cited from earlier work
[12] = system: VSV-G pseudotyped HIV-1-Luc in PSIP1 KO HEK293T cells; experiment: microbe, parasite or virus in culture; assay type: cell-based
[13] = system: HIV-1; experiment: Antiviral assay, late stage (inhibitor added to producer cells); assay type: cell-based; settings: Human immunodeficiency virus 1, virions prepared in presence of inhibitor, untreated target cells; called IC50
Protocol: Results represent mean ± SD from three independent experiments.
For late stage experiments, the progeny virions were prepared in the presence of the indicated concentrations of the test inhibitor or diluent control (DMSO) and were then used to infect untreated target cells.

[14] = system: LEDGF/p75-dependent HIV-1 integration; experiment: HIV-1 integration site distribution (ligation-mediated PCR, 454-pyrosequencing); assay type: cell-based
[15] = system: HIV-1 expression; assay type: cell-based; settings: for inhibition of HIV-1 expression: target cells
[16] = target: the molecule itself; experiment: AlphaScreen or HTRF; HTRF-based IN multimerization assay in vitro, compound (KF115 or KF116) titrated; carried out as described in ref. 33
[17] = target: the molecule itself; experiment: cross-linking; concentrated, detergent-lysed virions (50 ng p24) from HEK293T cells treated with DMSO or 1 µM KF116; 50 µM BS3; SDS-PAGE and immunoblot with HIV-1 IN antibody
[18] = ref 33, 41, read-out: antiviral activity IC50
[19] = Target, 5 µM, *** P<0.001 vs DMSO
[20] = target cells, 10 µM, *** P<0.001 vs DMSO

Cc1ccc(-c2nc(C)c(C(OC(C)(C)C)C(=O)O)c(-c3ccc(Cl)cc3)c2C)cc1C (stereo not drawn) [KF115]
Selectivity ratio, IC50 IN-LEDGF/EC50 aberrant IN multimerization [1]: 47.4
IC50 [2]: 13000 ± 1500 nM
CC50 [3]: > 100000 nM
EC50 [4]: 274 ± 25 nM
Selectivity Index, CC50/IC50 [5]: >826
IC50 ([5]; Human immunodeficiency virus 1, read-out: Antiviral activity (IC50), HIV-1NL4-3, full replication cycle): ~121 nM

Cc1nnc(C(=O)NC(C)(C)c2nc(C(=O)NCc3ccc(F)cc3)c(O)c(=O)n2C)o1 [RAL, Raltegravir, reference compound]
effect on replication intermediates in target cells of virions produced in presence of inhibitor [6]: no inhibitory effects
effect on replication intermediates when inhibitor added to target cells [6]: selectively inhibited the integration step and increased the levels of 2-LTRs

COC(C(=O)O)c1c(C)nc2ccc(Br)cc2c1-c1ccc(Cl)cc1 (stereo not drawn) [BI-1001, reference compound]
Selectivity ratio, IC50 IN-LEDGF/EC50 aberrant IN multimerization [1]: 0.2
IC50 [7, 18]: ~5800 nM
IC50 ([7]; ref 33, read-out: Antiviral activity (IC50)): 5800 ± 100 nM
CC50 [3]: > 100000 nM
EC50 [8]: 4900 ± 300 nM
A128T IN HIV-1NL4-3 replication in infected cells [9]: marked resistance
Selectivity Index, CC50/IC50 [5]: >17
IC50 [10]: 1000 ± 100 nM

Cc1nc2ccccc2c(-c2cc(F)c3c(c2C)CCCO3)c1[C@H](OC(C)(C)C)C(=O)O [GS-B, reference compound]
IC50 [7, 18]: ~26 nM
EC50 ([7]; same value given in b14 with ref 33, 41, read-out: EC50 for full replication cycle): ~26 nM
IC50 [11]: ~700 nM
effect of complete loss of LEDGF/p75 protein in virus-producer cells on IC50 values [12]: did not alter
EC50 [13]: 39 nM
% in RefSeq (HIV-1 integration frequency) ([14]; Producer, 100 nM): 84.00%
% in known genes (HIV-1 integration frequency) ([14]; Producer, 100 nM): 85.71%
% in RefSeq (HIV-1 integration frequency) [14, 19]: 73.83%
% in known genes (HIV-1 integration frequency) [14, 19]: 75.74%
% in RefSeq (HIV-1 integration frequency) [14, 20]: 74.76%
% in known genes (HIV-1 integration frequency) [14, 20]: 77.39%
inhibition of HIV-1 expression ([15]; 5 µM): ~71%
inhibition of HIV-1 expression ([15]; 10 µM): ~88%
reduction in target cell HIV-1 expression ([15]; virus-producer cells treated with 0.1 µM): ~77%

B1: HIV-1 integrase (recombinant IN) (enzyme)
chain: FLDGIDKAQEEHEKYHSNWRAMASDFNLPPVVAKEIVASCDKCQLKGEAMHGQVDCSPGIWQLDCTHLEGKVILVAVHVASGYIEAEVIPAETGQETAYFLLKLAGRWPVKTVHTDNGSNFTSTTVKAACWWAGIKQEFGIPYNPQSQGVIESMNKELKKIIGQVRDQAEHLKTAVQMAVFIHNFKRKGGIGGYSAGERIVDIIATDIQTKELQKQITKIQNFRVYYRDSRDPVWKGPAKLLWKGEGAVVIQDNSDIKVVPRRKAKIIRDYGKQMAGDDCVASRQDED
notes: also called WT IN; source: recombinant
EC50 of KF115 for aberrant IN multimerization (with KF115) [16]: 274 nM
EC50 of KF116 for aberrant IN multimerization (with KF116) [16]: 86 nM

B2: HIV-1 integrase in virus particles (enzyme)
chain: B1 chain
notes: also called virion-associated IN
stoichiometry N [17]: 2
